The subject of one data set is Ellen strain of VZV. Description: Plaque reduction assay for Varicella-Zoster virus in HFF cells. It counts as cell-based. The following applies: 10 days. On the procedure: (§1) Two days prior to use, human foreskin fibroblast (HiFF) cells were plated into six well plates and incubated at 37° C. with 5% CO2 and 90% humidity. On the date of assay, the drug was made upon MEM with 2% FBS then serially diluted 1:5 in MEM using six concentrations of drug. The initial starting concentration was 100/μg/ml down to 0.03 μg/ml. The virus used for infection was diluted in MEM containing 10% FBS to a desired concentration which gave 20-30 plaques per well. The media was aspirated from the wells and 0.2 ml of virus was added to each well in triplicate with 0.2 ml of media being added to drug toxicity wells. The plates were then incubated for one hour with shaking every fifteen minutes. After incubation, MEM containing the various drug concentrations was added to appropriate wells in a volume of 2.0 ml. Additional media was added again on day five and the cultures incubated for a total of 10 days. At the end of the incubation, the liquid was then aspirated off, stained with 6% neutral red solution for six hours, washed and plaques enumerated using a stereomicroscope. The results are compared with untreated control wells, and EC50 and CC50 values calculated.
On the technique in general: In a plaque reduction assay, fewer plaques than in the control indicate reduced infectivity or spread.

Data set [1] is described as follows: Neutral red uptake cytotoxicity assay. The conditions noted are these: human, uninfected human foreskin fibroblast (HFF) cells. Format: cell-based. The method, then: as §1, with “The results are compared with untreated control wells, and EC50 and CC50 values calculated.” left out
In data set [2] the test system is EBV. Description: Anti-EBV slot blot assay of EBV DNA in H1 cells. Format: cell-based, Epstein-Barr virus. On the procedure:
A high yield of BBV producing cell line H1 derived from human P3HR1 cells was used in this study. Cells were cultured in RPMIf medium supplemented with 10% dialyzed fetal bovine serum and 100 μg/ml Kanamycin and were grown at 37° C. in a humidified incubator containing 5% CO2.
H1 cells were maintained in logarithmic phase of growth for two days prior to the initiation of treatment. The H1 cells were seeded in 24 well plates at the density of 2×10^5 cells per well in 2 ml of fresh medium with or without drug treatment and were incubated at 37° C. for 5 days. Following the period of drug treatment the cells were pelleted and used to determine the inhibitory effect of drug on EBV DNA by slot blot assay.
Autoradiographfic results were anlayzed by densitometry. […] See, for example, Yao, et al., Antimic. Agzents and Chemo., July, 1993, p.

For another data set, the system named is mitochondrial DNA. Description: mt DNA content (toxicity to mitochondria, slot blot rehybridization). Format: cell-based, human. From the text: Autoradiographfic results were anlayzed by densitometry. […] See, for example, Yao, et al., Antimic.
The test system of another data set is cell growth. Nature of the data set: Cytotoxicity (cell growth).
Data set [3] can be described thus: Stability at different pH's (HPLC). The conditions noted are these: for stability (in words): pH 2. The method, then:
In order to explore the possibility of using L-I-OddU and L-Br-OddU orally for the treatment of EBV-associated diseases, its stability at different pH levels is important. L-I-OddU was exposed to different pH solutions as indicated for 3 hr at 37°. The percentage of compound remaining as L-I-OddU was examined using HPLC with a C18 column.

Data set [4] in a line: Pharmacokinetics in BDF1 mice. The conditions noted are these: 50 mg/kg po versus ip/iv, preliminary.
Method: At the times indicated in FIG. 5, blood was drawn into a heparinized capillary from the retro orbital plexus of female BDF1 mice. The plasma was separated from the formed elements by centrifugation. Then 100 μl of plasma was mixed with an equal volume of 30% trichloracetic acid and kept on ice for 10 minutes. […] The aqueous phase was moved to a clean tube and extracted again with the trioctylamine:freon mixture. Then 50 μl of the neutralized aqueous phase was injected onto a Perkin Elmer HPLC system. The samples were eluted from an Altech C18 column with an isocratic solvent system of water at 2 ml per min. The concentrations of the unknown samples were determined by comparison with standards of known concentrations.
Data set [5] relates to lactate accumulation in the medium. Nature of the data set: Lactate accumulation in medium of drug treated cultures.
In a further data set the test system is HBV. Nature of the data set: HBV assay. It counts as cell-based. From the text: (§2) Plaque reduction assays used for HSV-1, HSV-2 and CMV have been previously described. See, Gao, et al., Antimic. Agents and Chemo., May, 1990, p. 808-812 (HSV-Plaque); Cheng, et al., Proc. Natl. Acad. Sci. USA, vol. 80, 2767-2770 (May 1983) (CMV plaque reduction assay). The methods for testing against EBV, HBV, and HIV were also used as described previously. See, Yao, et al., Antimic. Agents and Chemo., July, 1993, p.

Data set [6] has as its system EBV. The conditions noted are these: reported in Chu et al. PCT application; cited from earlier work.
In another data set the test system is HSV-1. Description: Plaque reduction assay HSV-1. It counts as cell-based. The conditions noted are these: Human alphaherpesvirus 1; HSV-1, plaque reduction.
From the text: as §2

For the next data set, the system named is HSV-2. Nature of the data set: Plaque reduction assay HSV-2. It counts as cell-based. The following applies: Human alphaherpesvirus 2; HSV-2, plaque reduction.
From the text: as §2

The subject of a further data set is CMV. Description: Plaque reduction assay CMV. Format: cell-based. The following applies: Human betaherpesvirus 5.
From the text: as §2

The next data set has as its system HIV. Description: HIV assay. The following applies: Human immunodeficiency virus 1. It counts as cell-based.
From the text: as §2

Setting [7] is: Human alphaherpesvirus 3, 240 h, read-out: EC50.
The mark [8] stands for this setting: H1 cells, 5 days, EC50 of Table 2.
Where [9] appears, read: human gammaherpesvirus 4, 120 h, H1 cells, 5 days, EC50 of Table 2, read-out: Anti-EBV EC50.
The mark [10] stands for this setting: H1 cells, 5 days, EC50 of Table 2, read-out: Anti-EBV EC50.
Setting [11] is: read-out: Cytotoxicity IC50, cell growth.

Values after ≈ are worked out from the molar mass of the structure shown. “Also recorded” adds a separate entry of the source. Like-named read-outs stand apart in the source and are kept apart here. Where only a bound is given, the exact number is not on record here.

One may read the EC50 as the concentration needed to bring the measured effect to its halfway point. As usually defined, the CC50 is the concentration that lowers cell viability or growth by half. Read a low CC50 as harm at low concentration. Turning to `Nc1nc2c(ncn2COCCO)c(=O)[nH]1` [ACV (acycloguanine), acyclovir, reference compound], the EC50 in the data set with Ellen strain of VZV (setting [7]) is 0.6 µg/mL (≈ 2.66 µM). Also, the CC50 at 10 days in data set [1] was above 100 µg/mL.

`O=c1[nH]c(=O)n(C2COC(CO)O2)cc1Br` [D-Br-OddU, reference compound]: in the data set on EBV [2] (setting [8]), the “Anti-EBV EC50” value is reported as “Inactive”.

On to `O=c1[nH]c(=O)n(C2COC(CO)O2)cc1I` [D-I-OddU, reference compound], for which the “Anti-EBV EC50” value in the data set on EBV [2] (setting [8]) was “Inactive”.

Turning to `Nc1nc(O)c2ncn(COC(CO)CO)c2n1` [DHPG, gancyclovir, reference compound], the EC50 in the data set with EBV [2] (setting [9]) was 5 µM. In addition, the “mt DNA Content ID50” value in the data set with mitochondrial DNA is “Inactive”. The compound also registered an IC50 in the data set with cell growth (human, H1 cells) of 75 µM.

With `O=c1[nH]c(=O)n([C@@H]2CO[C@H](CO)O2)cc1Br` [L-Br-OddU], in the data set with EBV [2], the “anti-EBV activity (in words)” value is “most potent”. Besides, the EC50 in the data set with EBV [2] (setting [10]) was 0.2 µM; with EBV [2] (H1 cells, 5 days, second EC50 column of Table 2, read-out: Anti-EBV EC50) it was 2 µM; in the data set on Ellen strain of VZV, 0.8 µg/mL (≈ 2.73 µM). The “mt DNA Content ID50” value with mitochondrial DNA is recorded as “Inactive”. Besides, in [3] (pH1, 3 hr at 37°), the “% Remaining” value stood at 105%. Also, the “stability (in words)” value in data set [3] is listed as “stable”. Besides, the IC50 in the data set on cell growth (setting [11]) is above 100 µM. Moreover, in data set [4], the “efficiency of oral uptake” value was “about 60%”. Moreover, in [5], the “induction of lactate accumulation in the medium” value was “lack of induction”.

With `O=c1[nH]c(=O)n([C@@H]2CO[C@H](CO)O2)cc1C(F)(F)F` [L-CF3-OddU, (2S,4S)-1-[2-(Etydroxymethyl)-1,3-dioxolan-4-yl]-5-trifluoromethyluracil], the EC50 in the data set on EBV [2] (setting [10]) stood at 3 µM. In the data set on mitochondrial DNA, the “mt DNA Content ID50” value is recorded as “Inactive”. Moreover, the IC50 in the data set with cell growth (setting [11]) was above 100 µM.

For `O=c1[nH]c(=O)n([C@@H]2CO[C@H](CO)O2)cc1Cl` [L-CI-OddU, (2S,4S)-1-[2-(Hydroxymethyl)-1,3-dioxolan-4-yl]-5-chlorouracil], the EC50 came out at 3 µM in the data set on EBV [2] (setting [9]) and 27.9 µg/mL (≈ 112 µM) in the data set with Ellen strain of VZV (setting [7]). Further, the “mt DNA Content ID50” value in the data set on mitochondrial DNA was “Inactive”. This compound also yielded a CC50 at 10 days in data set [1] above 100 µg/mL. Also, the IC50 in the data set with cell growth (human, H1 cells) is above 100 µM.

`O=c1[nH]c(=O)n([C@@H]2CO[C@H](CO)O2)cc1F` [L-F-OddU, (2S,4S)-1-[2-(Hydroxymethyl)-1,3-dioxolan-4-yl]-5 fluorouracil]: the EC50 with EBV [2] (setting [9]) is 50 µM. Moreover, the “mt DNA Content ID50” value in the data set on mitochondrial DNA is recorded as “Inactive”. For the same compound, the IC50 in the data set with cell growth (human, H1 cells) was above 100 µM.

As to `Cc1cn([C@H]2O[C@@H](CO)[C@H](O)[C@H]2F)c(=O)[nH]c1=O` [L-FMAU, 2′-fluoro-5-methyl-β-L-arabinofuranosyluridine, reference compound], in the data set with EBV [2], the “anti-EBV activity (in words)” value is “active”. In the data set on HBV, the “activity against HBV (in words)” value is on record as “active”. Moreover, in the data set on EBV [6], the “activity against EBV (PCT/US95/01253)” value is given as “good activity”.

As for `O=c1[nH]c(=O)n([C@@H]2CO[C@H](CO)O2)cc1I` [L-I-OddU, (2S,4S)-1-[2-(Hydroxymethyl)-1,3-dioxolan-4-yl]-5-iodouracil], in the data set on EBV [2], the “anti-EBV activity (in words)” value is on record as “most potent; also recorded: slightly more potent than L-Br-OddU”. In addition, the “EC50 against EBV relative to L-FMAU” value in the data set with EBV [2] (comparison with L-FMAU) is given as “at least four times lower than L-FMAU”. Further, the EC50 in the data set on EBV [2] (setting [9]) is 0.1 µM; with EBV [2] (human gammaherpesvirus 4, 120 h, H1 cells, 5 days, second EC50 column of Table 2, read-out: Anti-EBV EC50) it was 0.4 µM; with EBV [2] (human gammaherpesvirus 4, EBV, Table 3, read-out: EC50), 0.1 µM; with HSV-1 it was 50 µM; in the data set with HSV-2, above 50 µM; with CMV, above 10 µM. Besides, the EC50 in the data set with HBV (Hepatitis B virus, HBV) was above 10 µM; in the data set with HIV, above 100 µM; in the data set on Ellen strain of VZV (setting [7]) it was 4.2 µg/mL (≈ 12.4 µM). The “mt DNA Content ID50” value in the data set on mitochondrial DNA was “Inactive”. Besides, the “activity against HBV (in words)” value in the data set on HBV was “little activity”. The “% Remaining” value stood at 102% in data set [3] (pH1, 3 hr at 37°); 102% in [3] (pH2, 3 hr at 37°); 102% in [3] (pH5, 3 hr at 37°); 99% in data set [3] (pH7, 3 hr at 37°); 100% in [3] (pH9, 3 hr at 37°). In addition, the “stability (in words)” value in data set [3] is “stable”. Further, the CC50 at 10 days in data set [1] is above 100 µg/mL. The same compound displayed an IC50 in the data set with cell growth (human, H1 cells) above 100 µM. Moreover, in data set [5], the “induction of lactate accumulation in the medium” value is reported as “lack of induction”.

Turning to `O=c1ccn([C@@H]2CO[C@H](CO)O2)c(=O)[nH]1` [L-OddU, (2S,4S)-1-[2-(Hydroxymethyl)-1,3-dioxolan-4-yl]uracil], the EC50 with EBV [2] (setting [9]) is above 50 µM. In addition, in the data set on mitochondrial DNA, the “mt DNA Content ID50” value is on record as “Inactive”. This compound displayed an IC50 in the data set on cell growth (human, H1 cells) above 100 µM.

For the compound `Nc1ccn([C@H]2CC[C@@H](CO)O2)c(=O)n1` [ddC, reference compound], the “Anti-EBV EC50” value in the data set with EBV [2] (setting [8]) is recorded as “Inactive”. Further, the IC50 was 0.02 µM with mitochondrial DNA (read-out: mt DNA Content ID50) and 20 µM in the data set on cell growth (setting [11]).

The record behind these values is patent US20010018440A1, “L-beta-dioxolane uridine analogs and methods for treating and preventing virus infections” (Yale University and The University of Georgia Research …, priority 1996, published 2001).
